{"source": "patent US4425347A", "about": "“Perfluorobicyclo compound emulsion preparation” (priority 1982, dated 1984)", "assay": "Distribution of Perfluoro-compound in Organs (gas chromatography)", "assay_type": "in vivo, Wister-strain male rats", "settings": "4 g/kg, tail vein; for Residual Rate of perfluorobicyclo compound: 3 Months after administration", "protocol": "Using Wister-strain male rats weighing 120-130 g, the emulsion prepared in Example 1 was administered into the tail vein [at 4 g/kg as perfluoro-4-methyloctahydroquinolidine], and for a period of 3 months after the administration, the content of said compound in the liver, spleen and fat tissues due to uptake were measured by means of gas chromatography."}
{"smiles": "FC(F)(F)C1(F)N2C(F)(F)C(F)(F)C(F)(F)C(F)(F)C2(F)C(F)(F)C(F)(F)C1(F)F", "note": "(centres unmarked) [perfluoro-4-methyloctahydroquinolidine]", "values": [{"measurement": "adverse influence on the liver or spleen organ", "setting": "3 months", "result": "no evidence of adverse influence on the liver or spleen organ"}, {"measurement": "uptake by the reticulo-endothelial organ and disappearance", "setting": "rat", "result": "taken up in greater amounts by the reticulo-endothelial organ shortly after the administration, but soon disappeared rapidly"}, {"measurement": "Residual Rate of perfluorobicyclo compound", "setting": "Liver", "result": 0.30, "unit": "%"}, {"measurement": "Residual Rate of perfluorobicyclo compound", "setting": "Spleen", "result": 0.09, "unit": "%"}, {"measurement": "half-life", "setting": "in vivo, iv, 4000 mg/kg, rat", "result": 176, "unit": "h"}]}
